Measurements: article PMC7822874, “Chemoprotective antimalarials identified through quantitative high-throughput screening of Plasmodium blood and liver stage parasites” (Scientific Reports, 2021)
Several values for one entry are separate records, joined by “and”; a condition that tells them apart may be missing. Equal values may be shown once. Read-outs that look alike come from different tables or passages of the source.

Tests used:
[1] = test system: P. falciparum Dd2 Cytb V259L; test: SYBR Green ABS proliferation assay, NCGC00473217 selected clone F06; type: cell-based, Plasmodium falciparum; set-up: log AC50, mean: unit: log M; conditions: for AC50: Plasmodium falciparum
In short: (§1)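 Drug-selected P. falciparum Dd2 clones carrying Cytb mutations, obtained by limiting-dilution cloning, grown in RBCs at 37 °C under 5% CO2/5% O2/90% N2. Growth read by SYBR Green-I fluorescence at 72 h and normalized to controls.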

[2] = test system: Plasmodium falciparum Dd2 asexual blood stage parasites; test: microbe, parasite or virus in culture; set-up: species or system Plasmodium falciparum Dd2 in human erythrocytes; single determination (one 11-point concentration-response curve); conditions: Plasmodium falciparum, DD2, Erythrocyte, 72 h; read-out: AC50
[3] = test system: P. falciparum Dd2 Cytb A122D; test: SYBR Green ABS proliferation assay, NCGC00473217 selected clone F12; type: cell-based, Plasmodium falciparum; set-up: log AC50, mean: unit: Log[M]; conditions: for AC50: Plasmodium falciparum
In short: as §1

[4] = test system: P. falciparum Dd2 Cytb F123L; test: SYBR Green ABS proliferation assay, NCGC00473217 selected clone G08; type: cell-based, Plasmodium falciparum; set-up: log AC50, mean: unit: log10(M); conditions: for AC50: Plasmodium falciparum
In short: as §1

[5] = test system: luciferase-expressing P. berghei liver stage parasites in HepG2 cells; test: Inhibition of liver-stage development assay (ILSDA), Method 2 (WRAIR, 96-well); type: cell-based, Plasmodium berghei; conditions: for Activity direction (Decrease / Inactive): P. berghei liver stage, Method 2, dose response; for Max Resp (signal direction of the dose response): Method 2, Decrease = decreasing P. berghei viability with dose, Increase = increasing signal, Inactive = no dose response; for AC50: Plasmodium berghei, HepG2, Method 2
[6] = test system: T1, Plasmodium falciparum Dd2-attB (parental line), asexual blood stages; test: microbe, parasite or virus in culture; set-up: replicate k of 3 (each line is one of three independent assays; the three lines of one compound and parasite line follow each other); conditions: n = 1; for Individual replicates / Log AC50 (M): 72 h; for AC50: Plasmodium falciparum, DD2, 72 h, read-out: Individual replicates / Log AC50 (converted)
T1 construct: Dd2-attB, the isogenic parental line
In short: (§2)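 Statistics: two-sided Student's t-test between parental and transgenic values, from three independent assays. The transgene encodes a fumarate-dependent DHODH from yeast, independent of the parasite mETC.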

[7] = test system: P. falciparum Dd2 Cytb G131S; test: SYBR Green ABS proliferation assay, NCGC00374598 selected clone C11; type: cell-based, Plasmodium falciparum; conditions: Plasmodium falciparum
In short: as §1

[8] = test system: T2, Plasmodium falciparum Dd2-attB-ScDHODH (transgenic line expressing yeast DHODH), asexual blood stages; test: organism not typed; set-up: replicate k of 3 (each line is one of three independent assays; the three lines of one compound and parasite line follow each other); conditions: 72 h, n = 1
T2 construct: Dd2-attB-ScDHODH, the transgenic line that expresses yeast DHODH
In short: as §2

[9] = test system: P. falciparum Dd2 (clone B2) asexual blood stage parasites; test: P. falciparum Dd2 asexual blood stage SYBR Green-I 72 h proliferation assay (qHTS); type: cell-based, Plasmodium falciparum; conditions: Plasmodium falciparum, DD2, Dd2 parental; Hill fit, averaged from three independent replicates; top concentration 29 µM; read-out: Average AC50 (Log[M]), Dd2 (converted)
[10] = test system: P. berghei-ANKA-GFP-LucCON liver stage parasites in HepG2-A16-CD81EGFP cells; test: P. berghei liver stage Pb-Luc assay, Method 1 (UCSD, 1536-well); type: cell-based, Plasmodium berghei; conditions: Method 1; Decrease = decreasing P. berghei viability with dose, Increase = increasing signal, Inactive = no dose response
[11] = DD2, cytochrome b mutant line, second value triple, c6, […], read-out: log AC50, mean (converted)
[12] = DD2, […], averaged from three independent replicates, top concentration 29 µM, read-out: Average AC50 (Log[M]), NCGC00473217 clone F06 (Cytb V259L) (converted)
[13] = DD2, […], averaged from three independent replicates, top concentration 29 µM, read-out: Average AC50 (Log[M]), NCGC00473217 clone F12 (Cytb A122D) (converted)
[14] = DD2, […], averaged from three independent replicates, top concentration 29 µM, read-out: Average AC50 (Log[M]), NCGC00473217 clone G08 (Cytb F123L) (converted)
[15] = DD2, […], averaged from three independent replicates, top concentration 29 µM, read-out: Average AC50 (Log[M]), NCGC00374598 clone C11 (Cytb G131S) (converted)
[16] = DD2, cytochrome b mutant line, third value triple, c9, […], read-out: log AC50, mean (converted)
[17] = DD2, cytochrome b mutant line, fourth value triple, c12, […], read-out: log AC50, mean (converted)
[18] = DD2, cytochrome b mutant line, fifth value triple, c15, […], read-out: log AC50, mean (converted)
[19] = Hill fit, 50% of maximum activity response, read-out: AC50
[20] = log10 of molar AC50 from Hill fit, read-out: Log AC50 (converted)

Compound | AC50 [1, 12] [M] | AC50 [3, 13] [M] | AC50 [9] [M] | AC50 [4, 14] [M] | AC50 [7, 15] [M] | other results
Oc1ccc(-c2nc(C3CC3)nc3c2CCN(CC2CCCCC2)CC3)cc1 [NCGC00480361-01] | – | – | – | – | – | log AC50, mean ([1]; cytochrome b mutant line, third value triple, c9, […]): -5.075; AC50 [2]: 4.73 µM; log AC50, mean ([3]; cytochrome b mutant line, fourth value triple, c12, […]): -5.009; log AC50, mean ([4]; cytochrome b mutant line, fifth value triple, c15, […]): -5.309; Activity direction (Decrease / Inactive) [5]: Inactive; Individual replicates / Log AC50 (M) [6]: -5.4486 Log AC50 (M) and -5.3986 Log AC50 (M); AC50 [6]: 4.48 µM; AC50 [7, 11]: 6.43e-06 M; Individual replicates / Log AC50 (M) [8]: -5.2486 Log AC50 (M) and -5.1486 Log AC50 (M)
CCCN1C(CC(C)C)=N[S+](=O)([O-])c2cc(NC(=O)c3sccc3F)ccc21 [NCGC00523542-01] | 5.43e-06 | 1.31e-06 | 1.59e-06 | 7.52e-06 | 1.78e-06 | –
CCCN1C(CC(C)C)=N[S+](=O)([O-])c2cc(NC(=O)c3ccc(Cl)c(Cl)c3)ccc21 [NCGC00531756-01] | 7.38e-06 | 8.93e-06 | 2e-05 | 1.42e-05 | 5.97e-06 | –
CC(C)CC1=N[S+](=O)([O-])c2cc(NC(=O)c3ccco3)ccc2N1C [NCGC00510958-01] | 1.26e-05 | 5.02e-06 | 5.32e-06 | 7.96e-07 | 2.82e-06 | –
CCCN1C(CC(C)C)=N[S+](=O)([O-])c2cc(NC(=O)c3cc(C)on3)ccc21 [NCGC00521054-01] | 2e-06 | 2e-06 | 8.93e-06 | 4.48e-06 | 1.26e-05 | –
CCCN1C(CC(C)C)=N[S+](=O)([O-])c2cc(NC(=O)c3cc4ccccc4s3)ccc21 [NCGC00521881-01] | 6.84e-06 | 4.48e-06 | 1.65e-05 | 7.1e-06 | 1.42e-05 | –
CCCN1C(CC(C)C)=N[S+](=O)([O-])c2cc(NC(=O)c3cc4cccnc4s3)ccc21 [NCGC00521132-01] | 2.99e-06 | 2.99e-06 | 6.7e-06 | 8.93e-06 | 2.82e-06 | –
CCCN1C(CC(C)C)=N[S+](=O)([O-])c2cc(NC(=O)c3cccc(OC(F)(F)F)c3)ccc21 [NCGC00531537-01] | 3.99e-06 | 1e-05 | 1.12e-05 | 7.96e-06 | 1.12e-05 | –
O=c1[nH]c(N2CCOCC2)nc2c1CCN(Cc1cc(F)c(F)cc1F)CC2 [NCGC00440659-01] | – | – | – | – | – | AC50 [1, 16]: 1.81e-05 M; AC50 [2]: 15 µM; AC50 [3, 17]: 1.74e-05 M; AC50 [4, 18]: 4.91e-06 M; Activity direction (Decrease / Inactive) [5]: Inactive; AC50 [7, 11]: 1.14e-05 M
CCCN1C(CC(C)C)=N[S+](=O)([O-])c2cc(NC(=O)C3CCCC3)ccc21 [NCGC00521158-01] | 2.16e-06 | 5.22e-06 | 2.72e-06 | 1.17e-05 | 4.15e-06 | –
CCCN1C(CC(C)C)=N[S+](=O)([O-])c2cc(NC(=O)c3ccccc3F)ccc21 [NCGC00523540-01] | 2.16e-06 | 2.82e-06 | 4.66e-06 | 2.72e-06 | 4.48e-06 | –
CCCN1C(CC(C)C)=N[S+](=O)([O-])c2cc(NC(=O)c3ccno3)ccc21 [NCGC00521048-01] | 3.17e-06 | 4.66e-06 | 6.1e-06 | 1.89e-07 | 5.02e-06 | –
CCCN1C(CC(C)C)=N[S+](=O)([O-])c2cc(NC(=O)c3cc4ncccn4n3)ccc21 [NCGC00521137-01] | 7.38e-06 | 9.29e-06 | 1e-05 | 1.04e-05 | 5.97e-06 | –
CCCN1C(CC(C)C)=N[S+](=O)([O-])c2cc(NC(=O)c3ccc(Cl)s3)ccc21 [NCGC00523535-01] | 7.1e-06 | 5.86e-06 | 1.53e-06 | 9.66e-06 | 1e-06 | –
CCCN1C(CC(C)C)=N[S+](=O)([O-])c2cc(NC(=O)c3cnn4cccnc34)ccc21 [NCGC00521136-01] | 8.28e-06 | 6.84e-06 | 1.22e-05 | 1.17e-05 | 7.96e-06 | –
CCCN1C(CC(C)C)=N[S+](=O)([O-])c2cc(NC(=O)C34CC5CC(CC(C5)C3)C4)ccc21 [NCGC00521891-01] | 1.12e-06 | 1.89e-06 | 3.56e-06 | 1e-06 | 2.82e-07 | –
CCCN1C(CC(C)C)=N[S+](=O)([O-])c2cc(NC(=O)c3ccc(-c4ccccc4)s3)ccc21 [NCGC00521113-01] | 1.42e-06 | 5.02e-06 | 5.02e-06 | 2.24e-06 | 1.68e-06 | –
CCCN1C(CC(C)C)=N[S+](=O)([O-])c2cc(NC(=O)c3cccc(F)c3)ccc21 [NCGC00523538-01] | 1e-06 | 2.72e-06 | 3.85e-06 | 1.12e-05 | 2.08e-06 | –
CCCN1C(CC(C)C)=N[S+](=O)([O-])c2cc(NC(=O)c3c(F)cccc3F)ccc21 [NCGC00531536-01] | 1.22e-05 | 1e-05 | 1.59e-05 | 5.64e-06 | 1.22e-05 | –
CCCN1C(CC(C)C)=N[S+](=O)([O-])c2cc(NC(=O)c3ccc4ccccc4n3)ccc21 [NCGC00521161-01] | 2.24e-06 | 3.99e-06 | 5.97e-06 | 2.82e-06 | 7.96e-07 | –
CCCN1C(CC(C)C)=N[S+](=O)([O-])c2cc(NC(=O)c3cc4ccncc4[nH]3)ccc21 [NCGC00521877-01] | 7.67e-07 | 7.67e-07 | 2.24e-06 | 9.29e-07 | 1.42e-06 | –
COc1ccc(-c2nc(C3CC3)nc3c2CCN(Cc2cc(C)on2)CC3)cc1 [NCGC00374666-01] | – | – | – | – | – | AC50 [1, 16]: 8.09e-06 M; AC50 [3, 17]: 6.93e-06 M; AC50 [4, 18]: 5.31e-06 M; Max Resp (signal direction of the dose response) [5]: Decrease; AC50 [5, 19]: 0.794 µM; AC50 [5, 20]: 0.794 µM; AC50 [7, 11]: 8.09e-06 M
CC(=O)Nc1ccc(CN2CCc3nc(C(C)C)nc(-c4ccc(Cl)cc4)c3CC2)cc1 [NCGC00374598-01] | – | – | – | – | – | AC50 [1, 16]: 4.91e-06 M; AC50 [2]: 2.66 µM; AC50 [3, 17]: 3.35e-06 M; Max Resp (signal direction of the dose response) [10]: Decrease; AC50 [4, 18]: 7.78e-07 M; Max Resp (signal direction of the dose response) [5]: Decrease; AC50 [5, 19]: 0.501 µM; AC50 [5, 20]: 0.501 µM; Individual replicates / Log AC50 (M) [6]: -5.6986 Log AC50 (M) and -5.7986 Log AC50 (M); AC50 [6]: 1.26 µM; AC50 [7, 11]: 4.91e-06 M; Individual replicates / Log AC50 (M) [8]: -5.1486 Log AC50 (M) and -4.9986 Log AC50 (M) and -5.3986 Log AC50 (M)
O=[S+]([O-])(c1cccs1)N1CCc2nc(C3CC3)nc(-c3ccc(Cl)cc3)c2CC1 [NCGC00476969-01] | – | – | – | – | – | AC50 [1, 16]: 1.19e-05 M; AC50 [3, 17]: 1.38e-05 M; AC50 [4, 18]: 1.23e-05 M; Activity direction (Decrease / Inactive) [5]: Inactive; AC50 [7, 11]: 7.78e-06 M
CCc1nc2c(c(-c3ccc(O)cc3)n1)CCN(Cc1ccc(OC(F)(F)F)cc1)CC2 [NCGC00480301-01] | – | – | – | – | – | AC50 [1, 16]: 5.73e-06 M; AC50 [2]: 1.5 µM; AC50 [3, 17]: 6.18e-06 M; AC50 [4, 18]: 7.78e-06 M; Activity direction (Decrease / Inactive) [5]: Inactive; AC50 [7, 11]: 5.11e-06 M
